These are literature values, as cited in patent publication US20150051382A1 (CARDIOPEP PHARMA GMBH, priority 2010, published 2015).

The subject of data set [1] is patients with chronic congestive heart failure. The note with it: 15 ng/kg/min, 10-hour infusion.
For data set [2] the test system is unchanged.
For data set [3], the system named is patients with moderate asthma affliction. The following applies: brief infusion; healthy and diseased subjects.

As for urodilatin, the “central venous pressure (CVP)” value in data set [1] (after 5 hours of infusion) was “increases slightly”. In data set [1] (after 8 hours of infusion), the urine flow entry is reported as “loss of action”. The “effect as compared to other natriuretic peptides, such as ANP” value with dogs is recorded as “better effect”. For the same substance, in data set [2] (15+30 ng/kg/min, compared with the placebo group), the “changes of the baseline in pulmonary capillary wedge pressure (PCWP)” value is on record as “significant reductions”. Besides, the “changes of the cardiac index (CI)” value in data set [2] (15 and 30 ng/kg/min) is “significant increase”. In addition, in data set [2] (after 6 to 8 hours of infusion), the “cardiac index (CI), reversal of effect” value is “partial drop of CI” and the “pulmonary capillary wedge pressure (PCWP), reversal of effect” value was “slight increase of PCWP”. For the same substance, the “symptoms, morbidity and mortality” value in data set [2] (all doses) was “significantly improved”. Moreover, in data set [2] (human, in vivo), the “acute survival rate and hospital dwelling time” value was “significantly and relevantly influenced”. For the same substance, in data set [3], the effect on bronchoconstriction entry was “temporary biological effect”.
